US20240109900A1, “AZABICYCLIC SHP2 INHIBITORS” (IRBM S.P.A., priority 2021, published 2024)
Like-named read-outs stand apart in the source and are kept apart here.

Columns and labels:
[1] = biological target: SHP-2 enzyme (Met1-Leu525) (Homo sapiens (Human), UniProt Q06124); assay: SHP2 inhibition enzymatic assay; type: biochemical; settings: 0.5 nM SHP-2 activated by 500 nM IRS1 peptide, 75 μM DiFMUP substrate; read-out: SHP2wt-IC50
Procedure: The assay was performed as described in YP Chen et al, Nature (535)2016. Assay volume of 20 μL/well was assembled in 384 well black polystyrene low-binding microplates (Greiner), using the following buffer: 60 mM HEPES pH 7.2, 75 mM NaCl, 75 mM KCl, 1 mM EDTA pH 8, 0.05% tween-20, 5 mM DTT. The SHP-2 enzyme (synthetized by Origene, Met1-Leu525, cat #TP750155) was used at a final concentration of 0.5 nM. The enzyme was activated by 500 nM IRS1 peptide (sequence: H2N-LN(pY)IDLDLV(dPEG8)LST(pY)ASINFQK-amide SEQ ID No. 1) and incubated with 75 μM DiFMUP (Sigma) as substrate.
Briefly, DMSO serially diluted testing compounds were transferred to the bottom of the assay plate. SHP2 was then added together with the IRS1 peptide. 30 min post incubation, the DiFMUP substrate was added to the reaction and incubated 30 min at room temperature. Finally 5 μL of 160 μM bpV (Potassium bisperoxo[1,10-phenanthroline]oxovanadate [V], Sigma) were added to stop and quench the reaction. The fluorescence was detected by a microplate reader (Envision, PerkinElmer) according to the DiFMUP excitation and emission wavelength. The lower the fluorescence the higher the SHP2 inhibition. […] The percentage inhibition is fitted against the compound dilutions with a four-parameter logistic regression. The inflection point (i.e. the concentration at which half-maximal inhibition is achieved) is the IC50.

[2] = test system: ERK phosphorylation in KYSE-520 cells; assay: Phospho-ERK cellular assay; type: cell-based; settings: KYSE-520 cells, 2 h at 37° C., phospho-ERK1/2 (Thr202/Tyr204) TR-FRET, read-out: PERK IC50
Procedure: ERK phosphorylation was detected using the “Advanced phospho-ERK1/2 (Thr202/Tyr204)” TR-FRET kit (Cisbio, Cat #64AERPEG/H), following the manufacturer reagents and instructions.
Briefly, 20.000/well KYSE-520 cells (DSMZ ACC 371) were plated in 6 μL RPMI-1640 (Invitrogen) growth medium, into 384 white low-volume high base TC microplates (Greiner). After an overnight incubation, cells were treated with DMSO serial diluted compounds and incubated for 2 h at 37° C. After incubation, 2 μL/well of 4×Lysis Buffer (Cisbio 64KL1FDF), were added and incubated with cells for 30 min on gentle shaking. Finally, lysates were added with 2 μL/well of Eu cryptate (donor) and D2 (acceptor) conjugated antibodies (as provided by the Cisbio kit #64AERPEG/H) diluted 1:100 in Detection Buffer (as provided by the Cisbio kit #64AERPEG/H). Plates were then sealed and incubated at room temperature in the dark. After an overnight incubation, the TR-FRET signal was detected on a suitable reader (Envision, PerkinElmer). The lower the TR-FRET signal the higher the higher the SHP2 inhibition in cells.
The activity of each compound dilution was calculated as percentage between vehicle DMSO treated cells and no cells, 0% inhibition and 100% inhibition respectively. The percentage activity is fitted against the compound dilutions with a four-parameter logistic regression. The inflection point (i.e. the concentration at which half-maximal inhibition is achieved) is the IC50.

Chain of SHP-2 enzyme (Met1-Leu525) (Q06124 1-525): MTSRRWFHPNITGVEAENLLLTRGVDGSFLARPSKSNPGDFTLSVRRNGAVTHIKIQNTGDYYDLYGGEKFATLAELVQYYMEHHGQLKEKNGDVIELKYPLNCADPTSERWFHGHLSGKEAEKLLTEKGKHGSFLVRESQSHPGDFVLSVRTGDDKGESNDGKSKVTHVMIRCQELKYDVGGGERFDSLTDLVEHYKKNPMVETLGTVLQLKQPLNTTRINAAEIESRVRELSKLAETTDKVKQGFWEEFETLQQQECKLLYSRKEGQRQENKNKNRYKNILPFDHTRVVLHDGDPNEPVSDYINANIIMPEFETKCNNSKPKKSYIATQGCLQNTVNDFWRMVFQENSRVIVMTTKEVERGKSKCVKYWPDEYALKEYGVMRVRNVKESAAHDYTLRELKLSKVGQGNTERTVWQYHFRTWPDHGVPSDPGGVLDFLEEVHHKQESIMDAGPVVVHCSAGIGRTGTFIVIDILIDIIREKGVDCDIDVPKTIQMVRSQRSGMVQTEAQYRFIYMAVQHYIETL

IC50 [1] [nM]	IC50 ([2]; Homo sapiens, KYSE-520, 2 h) [nM]	IC50 [2] [nM]	SMILES	IC50 ([2]; Homo sapiens) [nM]
< 500	< 1000		NC[C@]1(c2ccccc2F)[C@@H]2CCN(c3cnc4c(-c5ccnc(-n6cccn6)c5Cl)n[nH]c4n3)C[C@@H]21 [Example 451, ((1S,6R,7R)-3-(3-(3-chloro-2-(1H-pyrazol-1-yl)pyridin-4-yl)-1H-pyrazolo[3,4-b]pyrazin-6-yl)-7-(2-fluorophenyl)-3-azabicyclo[4.1.0]heptan-7-yl)methanamine]	
< 500	< 1000		Cn1cc2ccc(-c3n[nH]c4nc(N5CC[C@@H]6[C@H](C5)[C@@]6(CN)c5ccccc5F)cnc34)c(Cl)c2n1 [Example 363, ((1S,6R,7R)-3-(3-(7-chloro-2-methyl-2H-indazol-6-yl)-1H-pyrazolo[3,4-b]pyrazin-6-yl)-7-(2-fluorophenyl)-3-azabicyclo[4.1.0]heptan-7-yl)methanamine]	
< 500	< 1000		NC[C@]1(c2ccccc2F)[C@@H]2CCN(c3cnc4c(-c5ccc6nn(CC(N)=O)cc6c5Cl)n[nH]c4n3)C[C@@H]21 [Example 324, 2-(5-(6-((1S,6R,7R)-7-(aminomethyl)-7-(2-fluorophenyl)-3-azabicyclo[4.1.0]heptan-3-yl)-1H-pyrazolo[3,4-b]pyrazin-3-yl)-4-chloro-2H-indazol-2-yl)acetamide]	
< 500	> 5000		CN(C)C(=O)c1ccc(-c2n[nH]c3nc(N4CC[C@@H]5[C@H](C4)[C@@]5(CN)c4ccccc4F)cnc23)c2cccnc12 [Example 212, 5-(6-((1S,6R,7R)-7-(aminomethyl)-7-(2-fluorophenyl)-3-azabicyclo[4.1.0]heptan-3-yl)-1H-pyrazolo[3,4-b]pyrazin-3-yl)-N,N-dimethylquinoline-8-carboxamide]	
< 500	< 1000		Cn1cc2c(Cl)c(-c3n[nH]c4nc(N5C[C@@H]6[C@H](C5)[C@@]6(CN)c5c(F)cccc5F)cnc34)ccc2n1 [Example 221, ((1R,5S,6s)-3-(3-(4-chloro-2-methyl-2H-indazol-5-yl)-1H-pyrazolo[3,4-b]pyrazin-6-yl)-6-(2,6-difluorophenyl)-3-azabicyclo[3.1.0]hexan-6-yl)methanamine]	
< 500	< 1000		Cc1ccc([C@@]2(CN)[C@@H]3CN(c4cnc5c(-c6ccc7nn(C)cc7c6Cl)n[nH]c5n4)C[C@@H]32)nc1 [Example 493, ((1R,5S,6r)-3-(3-(4-chloro-2-methyl-2H-indazol-5-yl)-1H-pyrazolo[3,4-b]pyrazin-6-yl)-6-(5-methylpyridin-2-yl)-3-azabicyclo[3.1.0]hexan-6-yl)methanamine]	
< 500	> 5000		NC[C@]1(c2ccccc2F)[C@@H]2CCN(c3cnc4c(-c5cnn(-c6ccccc6)c5)n[nH]c4n3)C[C@@H]21 [Example 390, ((1S,6R,7R)-7-(2-fluorophenyl)-3-(3-(1-phenyl-1H-pyrazol-4-yl)-1H-pyrazolo[3,4-b]pyrazin-6-yl)-3-azabicyclo[4.1.0]heptan-7-yl)methanamine]	
< 500	< 1000		COc1c(F)cc(-c2n[nH]c3nc(N4CC[C@@H]5[C@H](C4)[C@@]5(CN)c4ccccc4F)cnc23)c2cccnc12 [Example 225, ((1S,6R,7R)-3-(3-(7-fluoro-8-methoxyquinolin-5-yl)-1H-pyrazolo[3,4-b]pyrazin-6-yl)-7-(2-fluorophenyl)-3-azabicyclo[4.1.0]heptan-7-yl)methanamine]	
< 500	< 1000		NC[C@]1(c2ccccc2F)[C@@H]2CCN(c3cnc4c(-c5ccnc(NC6CC6)c5Cl)n[nH]c4n3)C[C@@H]21 [Example 197, 4-(6-((1S,6R,7R)-7-(aminomethyl)-7-(2-fluorophenyl)-3-azabicyclo[4.1.0]heptan-3-yl)-1H-pyrazolo[3,4-b]pyrazin-3-yl)-3-chloro-N-cyclopropylpyridin-2-amine]	
< 500		< 1000	NC[C@]1(c2ccccc2F)[C@@H]2CCN(c3cnc4c(-c5ccc6c(c5Cl)NCCO6)n[nH]c4n3)C[C@@H]21 [Example 311]	
< 500		< 1000	NC[C@]1(c2ccccc2F)[C@@H]2CCN(c3cnc4c(-c5ccc6c(=O)[nH]ncc6c5Cl)n[nH]c4n3)C[C@@H]21 [Example 340]	

Second part, the molecule before the results:

SMILES	IC50 [1] [nM]	IC50 ([2]; Homo sapiens, KYSE-520, 2 h) [nM]	IC50 [2] [nM]	IC50 ([2]; Homo sapiens) [nM]
NCC1(c2cccc(F)c2)C2CCN(c3cnc4c(-c5cccc(Cl)c5Cl)n[nH]c4n3)CC21 (centres unmarked) [Example 7, (3-(3-(2,3-dichlorophenyl)-1H-pyrazolo[3,4-b]pyrazin-6-yl)-7-(3-fluorophenyl)-3-azabicyclo[4.1.0]heptan-7-yl)methanamine]	< 500	< 1000		
NC[C@]1(c2ccccc2F)[C@@H]2CCN(c3cnc4c(-c5ccnc6c(F)cccc56)n[nH]c4n3)C[C@@H]21 [Example 132, ((1S,6R,7R)-7-(2-fluorophenyl)-3-(3-(8-fluoroquinolin-4-yl)-1H-pyrazolo[3,4-b]pyrazin-6-yl)-3-azabicyclo[4.1.0]heptan-7-yl)methanamine]	< 500	< 1000		
Cc1cc(C2(CN)C3CCN(c4cnc5c(-c6ccnc7ccsc67)n[nH]c5n4)CC32)no1 (centres unmarked) [Example 18, (7-(5-methylisoxazol-3-yl)-3-(3-(thieno[3,2-b]pyridin-7-yl)-1H-pyrazolo[3,4-b]pyrazin-6-yl)-3-azabicyclo[4.1.0]heptan-7-yl)methanamine]	< 500	< 1000		
Cc1cc([C@@]2(CN)[C@@H]3CCN(c4cnc5c(-c6ccc(C(C)O)c7ncccc67)n[nH]c5n4)C[C@@H]32)no1 (stereo partly drawn) [Example 134, 1-(5-(6-((1S,6R,7S)-7-(aminomethyl)-7-(5-methylisoxazol-3-yl)-3-azabicyclo[4.1.0]heptan-3-yl)-1H-pyrazolo[3,4-b]pyrazin-3-yl)quinolin-8-yl)ethan-1-ol]	< 500	< 1000		
Cc1c(-c2n[nH]c3nc(N4CC[C@@H]5[C@H](C4)[C@@]5(CN)c4ccccc4F)cnc23)ccc2nonc12 [Example 193, ((1S,6R,7R)-7-(2-fluorophenyl)-3-(3-(4-methylbenzo[c][1,2,5]oxadiazol-5-yl)-1H-pyrazolo[3,4-b]pyrazin-6-yl)-3-azabicyclo[4.1.0]heptan-7-yl)methanamine]	< 500	< 1000		
CC(C)(O)c1ccc(-c2n[nH]c3nc(N4CC[C@@H]5[C@H](C4)[C@@]5(CN)c4ccccc4F)cnc23)c2cccnc12 [Example 137, 2-(5-(6-((1S,6R,7R)-7-(aminomethyl)-7-(2-fluorophenyl)-3-azabicyclo[4.1.0]heptan-3-yl)-1H-pyrazolo[3,4-b]pyrazin-3-yl)quinolin-8-yl)propan-2-ol]	< 500	< 1000		
CN(C)Cc1ccc(-c2n[nH]c3nc(N4CC[C@@H]5[C@H](C4)[C@@]5(CN)c4ccccc4F)cnc23)c2cccnc12 [Example 192, 1-(5-(6-((1S,6R,7R)-7-(aminomethyl)-7-(2-fluorophenyl)-3-azabicyclo[4.1.0]heptan-3-yl)-1H-pyrazolo[3,4-b]pyrazin-3-yl)quinolin-8-yl)-N,N-dimethylmethanamine]	< 500	> 5000		
NC[C@]1(c2ccccc2F)[C@@H]2CCN(c3ccc4nc(Sc5ccnc(N)c5Cl)cnc4n3)C[C@@H]21 [Example 385, 4-((6-((1S,6R,7R)-7-(aminomethyl)-7-(2-fluorophenyl)-3-azabicyclo[4.1.0]heptan-3-yl)pyrido[2,3-b]pyrazin-2-yl)thio)-3-chloropyridin-2-amine]	< 500			< 1000
